Positions of bridges follow the written chain, without caps; N, C: chain ends. Non-standard residues stand in square brackets, D forms with d. Residues, ends and D or L forms follow the SMILES beside them. Hyp = O=C(O)[C@@H]1C[C@@H](O)CN1
Legend:
[1] = molecular target: Cav2.2 in human SH-SY5Y cell membranes (Homo sapiens, UniProt Q00975); test: biochemical; type: binding; conditions: SEM
[2] = molecular target: hCav2.2 (Homo sapiens, UniProt Q00975); test: cell-based; conditions: SEM
Chain of hCav2.2 (Q00975 whole entry, looked up): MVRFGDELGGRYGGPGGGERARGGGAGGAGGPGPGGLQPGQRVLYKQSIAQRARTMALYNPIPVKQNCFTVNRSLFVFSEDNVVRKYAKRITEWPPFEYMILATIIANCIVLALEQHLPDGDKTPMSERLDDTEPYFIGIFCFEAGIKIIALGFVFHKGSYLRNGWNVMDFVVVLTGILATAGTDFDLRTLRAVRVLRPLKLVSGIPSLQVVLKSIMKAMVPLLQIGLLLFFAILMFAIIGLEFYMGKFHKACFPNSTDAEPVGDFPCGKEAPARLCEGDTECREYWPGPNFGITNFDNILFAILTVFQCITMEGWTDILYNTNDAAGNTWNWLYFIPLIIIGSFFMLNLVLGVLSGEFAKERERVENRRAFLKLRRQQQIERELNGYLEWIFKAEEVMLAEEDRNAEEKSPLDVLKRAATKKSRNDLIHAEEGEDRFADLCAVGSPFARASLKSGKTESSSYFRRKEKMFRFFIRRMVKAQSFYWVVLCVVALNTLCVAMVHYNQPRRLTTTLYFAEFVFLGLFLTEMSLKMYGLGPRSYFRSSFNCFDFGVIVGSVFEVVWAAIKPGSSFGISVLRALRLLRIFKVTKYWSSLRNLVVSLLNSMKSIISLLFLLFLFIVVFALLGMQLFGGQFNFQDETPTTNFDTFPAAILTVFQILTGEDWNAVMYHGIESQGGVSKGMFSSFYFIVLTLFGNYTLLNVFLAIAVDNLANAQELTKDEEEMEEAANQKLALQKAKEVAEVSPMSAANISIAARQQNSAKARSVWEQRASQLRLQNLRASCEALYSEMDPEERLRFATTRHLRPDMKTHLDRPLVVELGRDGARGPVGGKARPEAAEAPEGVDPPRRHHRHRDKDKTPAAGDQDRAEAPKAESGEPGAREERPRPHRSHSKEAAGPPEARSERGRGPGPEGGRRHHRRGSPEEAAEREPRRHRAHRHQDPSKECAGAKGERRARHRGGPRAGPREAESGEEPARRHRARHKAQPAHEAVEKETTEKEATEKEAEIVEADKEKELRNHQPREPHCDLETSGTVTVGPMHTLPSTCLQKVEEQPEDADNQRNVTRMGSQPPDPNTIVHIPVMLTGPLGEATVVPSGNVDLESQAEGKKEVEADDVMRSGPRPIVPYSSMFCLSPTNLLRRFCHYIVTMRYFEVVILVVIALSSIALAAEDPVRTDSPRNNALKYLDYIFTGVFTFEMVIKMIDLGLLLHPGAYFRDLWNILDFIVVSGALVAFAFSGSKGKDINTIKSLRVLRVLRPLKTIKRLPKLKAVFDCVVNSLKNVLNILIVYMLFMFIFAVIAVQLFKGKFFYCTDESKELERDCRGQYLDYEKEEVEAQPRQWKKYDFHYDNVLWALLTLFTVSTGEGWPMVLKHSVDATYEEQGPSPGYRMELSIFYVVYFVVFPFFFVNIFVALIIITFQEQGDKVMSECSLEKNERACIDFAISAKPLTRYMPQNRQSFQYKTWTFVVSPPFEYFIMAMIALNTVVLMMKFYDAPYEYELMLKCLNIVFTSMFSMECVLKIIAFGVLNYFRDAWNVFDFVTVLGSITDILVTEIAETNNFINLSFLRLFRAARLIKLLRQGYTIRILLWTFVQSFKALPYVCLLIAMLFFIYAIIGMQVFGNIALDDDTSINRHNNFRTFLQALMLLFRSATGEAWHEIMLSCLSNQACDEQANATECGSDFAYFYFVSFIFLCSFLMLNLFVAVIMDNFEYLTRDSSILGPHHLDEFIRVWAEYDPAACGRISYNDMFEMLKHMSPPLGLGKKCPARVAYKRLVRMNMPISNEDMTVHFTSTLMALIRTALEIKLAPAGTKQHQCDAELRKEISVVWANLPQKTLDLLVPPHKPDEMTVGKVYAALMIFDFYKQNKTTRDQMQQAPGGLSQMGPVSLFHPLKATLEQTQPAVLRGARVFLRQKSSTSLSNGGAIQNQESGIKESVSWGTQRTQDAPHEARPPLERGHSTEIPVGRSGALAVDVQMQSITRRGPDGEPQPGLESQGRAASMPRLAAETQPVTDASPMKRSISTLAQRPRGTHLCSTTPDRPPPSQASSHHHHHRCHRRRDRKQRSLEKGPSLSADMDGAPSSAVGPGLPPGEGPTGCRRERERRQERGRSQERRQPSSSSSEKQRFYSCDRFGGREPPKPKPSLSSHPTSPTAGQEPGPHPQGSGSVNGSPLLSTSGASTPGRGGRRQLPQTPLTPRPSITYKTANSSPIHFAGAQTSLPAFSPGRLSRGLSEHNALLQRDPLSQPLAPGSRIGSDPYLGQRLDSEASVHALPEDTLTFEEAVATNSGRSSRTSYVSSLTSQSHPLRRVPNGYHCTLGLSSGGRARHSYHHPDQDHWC

Chain of Cav2.2 in human SH-SY5Y cell membranes (Q00975 whole entry, looked up): as above

Structure (SMILES) | IC50 [1] [nM] | IC50 [2] [nM]
C[C@@H](O)[C@@H]1NC(=O)[C@H](Cc2ccc(O)cc2)NC(=O)[C@@H]2C[C@@H](O)CN2C(=O)[C@H](CC(N)=O)NC(=O)[C@@H]2CSSC[C@@H]3NC(=O)[C@H](CO)NC(=O)[C@H](CO)NC(=O)CNC(=O)[C@@H]4C[C@@H](O)CN4C(=O)[C@H](CO)NC(=O)[C@H](CCCCN)NC(=O)[C@@H](N)CSSC[C@H](NC(=O)[C@H](CSSC[C@@H](C(=O)N[C@@H](Cc4ccc(O)cc4)C(N)=O)NC(=O)[C@H](CCCN=C(N)N)NC(=O)[C@H](CCCCN)NC1=O)NC(=O)[C@H](CC(N)=O)NC(=O)[C@H](Cc1ccc(O)cc1)NC(=O)[C@H](CO)NC(=O)[C@H]([C@@H](C)O)NC(=O)[C@@H]1C[C@@H](O)CN1C(=O)[C@H](CO)NC3=O)C(=O)N[C@@H](CCCN=C(N)N)C(=O)N[C@@H](CO)C(=O)N2 [GVIA, reference compound] | 0.078 ± 0.012 | 170 ± 25
CC[C@H](C)[C@@H]1NC(=O)[C@@H]2CSSC[C@@H]3NC(=O)[C@H](CCCCN)NC(=O)[C@H](CO)NC(=O)CNC(=O)[C@@H]4C[C@@H](O)CN4C(=O)[C@@H]4CCCN4C(=O)[C@H](CCCCN)NC(=O)[C@@H](N)CSSC[C@H](NC(=O)[C@H](CSSC[C@@H](C(=O)N[C@@H](CCCNC(=N)N)C(=O)N[C@@H](CCCCN)C(=O)N[C@@H](Cc4ccc(O)cc4)C(=O)N[C@@H](Cc4ccc(O)cc4)C(=O)N[C@@H](CC(N)=O)C(=O)O)NC(=O)[C@H](CCCNC(=N)N)NC(=O)[C@H](CCCCN)NC(=O)[C@H]([C@@H](C)O)NC(=O)[C@H](Cc4ccc(O)cc4)NC(=O)[C@H](CO)NC1=O)NC(=O)[C@H](CC(=O)O)NC(=O)[C@H](CCCNC(=N)N)NC(=O)[C@H](CCSC)NC(=O)[C@H](CO)NC(=O)[C@@H]1C[C@@H](O)CN1C(=O)[C@H](CO)NC3=O)C(=O)N[C@@H]([C@@H](C)O)C(=O)N[C@@H]([C@@H](C)O)C(=O)N2 [MoVIA] (H-CKP[Hyp]GSKCS[Hyp]SMRDCCTTCISYTKRCRKYYN-OH; disulfide 1-16, 8-19, 15-26) | 0.035 ± 0.017 | 330 ± 18
CC[C@H](C)[C@@H]1NC(=O)[C@@H]2CSSC[C@@H]3NC(=O)[C@H](CCCCN)NC(=O)[C@H](CO)NC(=O)CNC(=O)[C@@H]4C[C@@H](O)CN4C(=O)[C@@H]4CCCN4C(=O)[C@H](CCCCN)NC(=O)[C@@H](N)CSSC[C@H](NC(=O)[C@H](CSSC[C@@H](C(=O)N[C@@H](CCCNC(=N)N)C(=O)N[C@@H](CCCCN)C(=O)N[C@@H](Cc4ccc(O)cc4)C(=O)N[C@@H](Cc4ccc(O)cc4)C(=O)O)NC(=O)[C@H](CCCNC(=N)N)NC(=O)[C@H](CCCCN)NC(=O)[C@H]([C@@H](C)O)NC(=O)[C@H](Cc4ccc(O)cc4)NC(=O)[C@H](CO)NC1=O)NC(=O)[C@H](CC(=O)O)NC(=O)[C@H](CCCNC(=N)N)NC(=O)[C@H](CCSC)NC(=O)[C@H](CO)NC(=O)[C@@H]1C[C@@H](O)CN1C(=O)[C@H](CO)NC3=O)C(=O)N[C@@H]([C@@H](C)O)C(=O)N[C@@H]([C@@H](C)O)C(=O)N2 [MoVIB] (H-CKP[Hyp]GSKCS[Hyp]SMRDCCTTCISYTKRCRKYY-OH; disulfide 1-16, 8-19, 15-26) | 0.365 ± 0.204 | 600 ± 120
